Source: patent US20230114728A1 (Venatorx Pharmaceuticals, Inc., priority 2019, published 2023)
≈ marks a conversion by molar mass, not a printed value.

Columns and labels:
Assay type in all cases: cell-based
[1] = test system: E. coli ATCC 25922; test: Broth microdilution MIC in CAMHB; conditions: Escherichia coli, ATCC25922; E. coli ATCC 25922; MHB; read-out: Minimum Inhibitory Concentration, E. coli 25922
Summary of the method: (§1)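 Colonies from cation-adjusted Mueller Hinton agar are grown in broth (3-5 h, 37° C), adjusted by OD600, and added at 2-8×10^5 CFU/mL to 2-fold compound dilutions. After 16-20 h at 37° C, the lowest concentration without growth is taken as MIC.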

[2] = test system: K. pneumoniae SI-117 producing VIM-1; test: Broth microdilution MIC in CAMHB; conditions: Klebsiella pneumoniae, read-out: Minimum Inhibitory Concentration, K. pneumoniae SI-117
Summary of the method: as §1

[3] = test system: E. coli AG100A; test: Broth microdilution MIC in CAMHB; conditions: Escherichia coli, read-out: Minimum Inhibitory Concentration, E. coli AG100A
Summary of the method: as §1

[4] = test system: P. aeruginosa ATCC 35151; test: Broth microdilution MIC in CAMHB; conditions: Pseudomonas aeruginosa, ATCC35151; MHB; hyper-permeable strain; read-out: Minimum Inhibitory Concentration, P. aeruginosa ATCC 35151
Summary of the method: as §1

[5] = test system: E. coli D22; test: Broth microdilution MIC in CAMHB; conditions: Escherichia coli; E. coli D22 (hyper-permeable); MHB; read-out: Minimum Inhibitory Concentration, E. coli D22
Summary of the method: as §1

[6] = test system: N. gonorrhoeae WHO K; test: Liquid broth MIC in Fastidious broth; conditions: Neisseria gonorrhoeae, read-out: Minimum Inhibitory Concentration, N. gonorrhoeae WHO K
Summary of the method: (§2)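 Mosaic-PBP2 strains grown 24 h on chocolate agar (36 °C, 5% CO2), then direct-suspended in saline and OD600-adjusted. Twofold compound dilutions in Fastidious broth inoculated at 5×10^5 CFU/mL and incubated ~24 h at 36 °C, 5% CO2. MIC read visually as lowest concentration with <10% growth versus full-growth wells.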

[7] = test system: N. gonorrhoeae WHO G; test: Liquid broth MIC in Fastidious broth; conditions: Neisseria gonorrhoeae; N. gonorrhoeae strain WHO G; Fastidious broth; read-out: Minimum Inhibitory Concentration, N. gonorrhoeae WHO G
Summary of the method: (§3)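 Colonies were swabbed from chocolate agar after 24 h growth and standardised by optical density at 600 nm. Compounds were serially diluted twofold in Fastidious broth, and bacteria added to give 5×10^5 CFU/mL. After about 24 h at 36 °C in 5% CO2, the lowest concentration allowing under 10% growth was taken as MIC.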

[8] = test system: N. gonorrhoeae WHO L; test: Liquid broth MIC in Fastidious broth; conditions: Neisseria gonorrhoeae; N. gonorrhoeae strain WHO L; Fastidious broth; read-out: Minimum Inhibitory Concentration, N. gonorrhoeae WHO L
Summary of the method: as §3

[9] = test system: N. gonorrhoeae FA1090; test: Liquid broth MIC in Fastidious broth; conditions: Neisseria gonorrhoeae; N. gonorrhoeae strain FA1090; Fastidious broth; read-out: Minimum Inhibitory Concentration, N. gonorrhoeae FA1090
Summary of the method: as §3

[10] = test system: N. gonorrhoeae WHO Z; test: Liquid broth MIC in Fastidious broth; conditions: Neisseria gonorrhoeae, read-out: Minimum Inhibitory Concentration, N. gonorrhoeae WHO Z
Summary of the method: as §2

[11] = test system: N. gonorrhoeae H041; test: Liquid broth MIC in Fastidious broth; conditions: Neisseria gonorrhoeae, H041, read-out: Minimum Inhibitory Concentration, N. gonorrhoeae H041
Summary of the method: as §2

[12] = test system: N. gonorrhoeae WHO Q; test: Liquid broth MIC in Fastidious broth; conditions: Neisseria gonorrhoeae, read-out: Minimum Inhibitory Concentration, N. gonorrhoeae WHO Q
Summary of the method: as §2

[13] = test system: N. gonorrhoeae ATCC 49226; test: Liquid broth MIC in Fastidious broth; conditions: Neisseria gonorrhoeae, ATCC49226; N. gonorrhoeae strain ATCC 49226; Fastidious broth; read-out: Minimum Inhibitory Concentration, N. gonorrhoeae ATCC 49226
Summary of the method: as §3

SMILES	MIC [1] [µg/mL]	MIC [2] [µg/mL]	MIC [3] [µg/mL]	MIC [4] [µg/mL]	MIC [5] [µg/mL]	MIC [6] [µg/mL]	MIC [7] [µg/mL]	MIC [8] [µg/mL]	MIC [9] [µg/mL]	MIC [10] [µg/mL]	MIC [11] [µg/mL]	MIC [12] [µg/mL]	MIC [13] [µg/mL]
CCN1CCN(C(=O)NC(C(=O)N[C@H]2Cc3cccc(C(=O)O)c3OB2O)c2c(F)c(O)cc(O)c2F)C(=O)C1=O (stereo partly drawn) [Example 106, (3R)-3-(2-(2,6-difluoro-3,5-dihydroxyphenyl)-2-(4-ethyl-2,3-dioxopiperazine-1-carboxamido)acetamido)-2-hydroxy-3,4-dihydro-2H-benzo[e][1,2]oxaborinine-8-carboxylic acid]	> 128	> 128	32 to 64 (≈ 55.5 to 111 µM)	2 to 4 (≈ 3.47 to 6.94 µM)	8 to 16 (≈ 13.9 to 27.8 µM)	> 64	16 to 32 (≈ 27.8 to 55.5 µM)	> 64	16 to 32 (≈ 27.8 to 55.5 µM)	> 64	> 64	> 64	> 64
CCN1CCN(C(=O)NC(C(=O)N[C@H]2Cc3cccc(C(=O)O)c3OB2O)c2cncc(O)c2)C(=O)C1=O (stereo partly drawn) [Example 112, (3R)-3-(2-(4-ethyl-2,3-dioxopiperazine-1-carboxamido)-2-(5-hydroxypyridin-3-yl)acetamido)-2-hydroxy-3,4-dihydro-2H-benzo[e][1,2]oxaborinine-8-carboxylic acid]	32 to 64 (≈ 60.9 to 122 µM)	> 128	2 to 4 (≈ 3.81 to 7.61 µM)	2 to 4 (≈ 3.81 to 7.61 µM)	2 to 4 (≈ 3.81 to 7.61 µM)	> 64	4 to 8 (≈ 7.61 to 15.2 µM)	> 64	1 to 2 (≈ 1.9 to 3.81 µM)	16 to 32 (≈ 30.5 to 60.9 µM)	> 64	16 to 32 (≈ 30.5 to 60.9 µM)	4 to 8 (≈ 7.61 to 15.2 µM)
NCCN1CCN(C(=O)N[C@H](C(=O)N[C@H]2Cc3cccc(C(=O)O)c3OB2O)c2cccc(NS(N)(=O)=O)c2)C(=O)C1=O (single isomer, unassigned) [Example 115]	> 128	> 128	8 to 16 (≈ 13 to 25.9 µM)	2 to 4 (≈ 3.24 to 6.48 µM)	8 to 16 (≈ 13 to 25.9 µM)	> 64	> 64	> 64	4 to 8 (≈ 6.48 to 13 µM)	> 64	> 64	> 64	> 64
CCN1CCN(C(=O)NC(C(=O)N[C@H]2Cc3cccc(C(=O)O)c3OB2O)c2cc(F)c(C(=O)O)cc2F)C(=O)C1=O (stereo partly drawn) [Example 137, (3R)-3-(2-(4-carboxy-2,5-difluorophenyl)-2-(4-ethyl-2,3-dioxopiperazine-1-carboxamido)acetamido)-2-hydroxy-3,4-dihydro-2H-benzo[e][1,2]oxaborinine-8-carboxylic acid]	32 to 64 (≈ 54.4 to 109 µM)	> 128	8 to 16 (≈ 13.6 to 27.2 µM)	0.5 to 1 (≈ 0.85 to 1.7 µM)	8 to 16 (≈ 13.6 to 27.2 µM)	4 to 8 (≈ 6.8 to 13.6 µM)	1 to 2 (≈ 1.7 to 3.4 µM)	16 to 32 (≈ 27.2 to 54.4 µM)	0.25 to 0.5 (≈ 0.425 to 0.85 µM)	4 to 8 (≈ 6.8 to 13.6 µM)	16 to 32 (≈ 27.2 to 54.4 µM)	4 to 8 (≈ 6.8 to 13.6 µM)	1 to 2 (≈ 1.7 to 3.4 µM)
CCN1CCN(C(=O)N[C@H](C(=O)N[C@H]2Cc3cccc(C(=O)O)c3OB2O)c2ccc(C(=O)O)c(Cl)c2)C(=O)C1=O (single isomer, unassigned) [Example 155]	> 128	> 128	8 to 16 (≈ 13.6 to 27.3 µM)	0.5 to 1 (≈ 0.852 to 1.7 µM)	2 to 4 (≈ 3.41 to 6.82 µM)	1 to 2 (≈ 1.7 to 3.41 µM)	0.25 to 0.5 (≈ 0.426 to 0.852 µM)	16 to 32 (≈ 27.3 to 54.5 µM)	< 0.125	1 to 2 (≈ 1.7 to 3.41 µM)	4 to 8 (≈ 6.82 to 13.6 µM)	1 to 2 (≈ 1.7 to 3.41 µM)	1 to 2 (≈ 1.7 to 3.41 µM)
CS(=O)(=O)N1CCN(C(=O)N[C@@H](C(=O)N[C@H]2Cc3cccc(C(=O)O)c3OB2O)c2c(F)cc(O)cc2F)C1=O (single isomer, unassigned) [Example 135]	8 to 16 (≈ 13.7 to 27.5 µM)	32 to 64 (≈ 55 to 110 µM)	0.5 to 1 (≈ 0.859 to 1.72 µM)	2 to 4 (≈ 3.43 to 6.87 µM)	2 to 4 (≈ 3.43 to 6.87 µM)	> 64	1 to 2 (≈ 1.72 to 3.43 µM)	16 to 32 (≈ 27.5 to 55 µM)	< 0.125	16 to 32 (≈ 27.5 to 55 µM)	> 64	16 to 32 (≈ 27.5 to 55 µM)	4 to 8 (≈ 6.87 to 13.7 µM)
